According to patent US9211310B2, “Use of a Chinese medicine composition in preparing medicaments for treating secondary prevention of myocardial infarction” (TASLY PHARMACEUTICAL GROUP CO., LTD, priority 2010, dated 2015):

Tested on: patients after acute myocardial infarction
Test: Angina pectoris score, total and single (frequency/attack times, duration, pain degree, dose of nitroglycerin), same clinical trial
Assay type: in vivo, human
Parameters: total angina pectoris score, Md / total angina pectoris score, Mean: scale not given here
Conditions: for patients with change of dose of nitroglycerin score −6 (%) / distribution of total angina pectoris score: Medium, number of patients / distribution of total angina pectoris score: Medium, percentage of patients / distribution of total angina pectoris score: Mild, number of patients / distribution of total angina pectoris score: Mild, percentage of patients / distribution of total angina pectoris score: Severe, number of patients / distribution of total angina pectoris score: Severe, percentage of patients / patients with dose of nitroglycerin score 0 (%) / patients with dose of nitroglycerin score 1 (%) / patients with dose of nitroglycerin score 2 (%) / patients with dose of nitroglycerin score 4 (%) / patients with dose of nitroglycerin score 6 (%) / total angina pectoris score, Md / total angina pectoris score, Mean / change of total angina pectoris score, Md / change of total angina pectoris score, Mean / patients with change of dose of nitroglycerin score 0 (%) / patients with change of dose of nitroglycerin score 1 (%) / patients with change of dose of nitroglycerin score 2 (%) / patients with change of dose of nitroglycerin score 4 (%) / patients with change of dose of nitroglycerin score 6 (%) / patients with change of dose of nitroglycerin score −1 (%) / patients with change of dose of nitroglycerin score −2 (%) / patients with change of dose of nitroglycerin score −3 (%) / patients with change of dose of nitroglycerin score −4 (%) / patients with change of dose of nitroglycerin score −5 (%): PP; for attack times score, patients (%): month after treatment
Text: In order to better understand the present invention, a multi-center, randomized, double-blind, double-dummy and positive drug controlled trial had been conducted. 3508 patients who were in accordance with the diagnostic standards of AMI for 28 days to 2 years and differentiated as Qi deficiency and blood stagnation syndrome by TCM were studied. 0.5 g Chinese medicine composition prepared by the method of EXAMPLE 1 (Coded as QSYQ) was administrated half an hour after meal, 3 times per day. Aspirine was used as a positive drug. The patients were treated for 1 year and observed for 6 months.
They included the overall survival time, angina pectoris score, TCM symptom score and life quality score, where angina pectoris score, TCM symptom score and life quality score were evaluated at randomization, in 1st, 3rd, 6th, 9th, 12th month after treatment and 18th month after follow-up.
(§1) Total angina pectoris score was described on every observation period and the change of observation in comparison with baseline. T-test or Wilcoxon rank sum test were used for inter-group comparison. Grade of total score was evaluated on every observation and Wilcoxon rank sum test was used for inter-group comparison. T-test and Pairing signed rank sum test were used for analyzing the change of total score on every observation between groups in comparison with the baseline.
(§2) Single angina pectoris score was depicted on every observation time-point and the change of observation in comparison with baseline. Wilcoxon rank sum test was used for inter-group comparison. Pairing signed rank sum test was used for analyzing the change of total score on every observation between groups in comparison with the baseline.
as §1, with “comparison with the baseline. T-test” for “comparison with baseline. T-test”
as §2, with “described” for “depicted”

[1] = 6 months after treatment-baseline
[2] = 9 months after treatment-baseline
[3] = 12 months after treatment-baseline

CC(=O)Oc1ccccc1C(=O)O [Control group, aspirine]
patients with change of dose of nitroglycerin score −6 (%) (3 months after treatment-baseline): (0.68%) | distribution of total angina pectoris score: Medium, number of patients (6 months after treatment): 278 | distribution of total angina pectoris score: Medium, percentage of patients (6 months after treatment): (19.08%) | distribution of total angina pectoris score: Mild, number of patients (6 months after treatment): 1172 | distribution of total angina pectoris score: Mild, percentage of patients (6 months after treatment): (80.44%) | distribution of total angina pectoris score: Severe, number of patients (6 months after treatment): 7 | distribution of total angina pectoris score: Severe, percentage of patients (6 months after treatment): (0.48%) | patients with dose of nitroglycerin score 0 (%) (6 months after treatment): (67.13%) | patients with dose of nitroglycerin score 1 (%) (6 months after treatment): (1.03%) | patients with dose of nitroglycerin score 2 (%) (6 months after treatment): (27.85%) | patients with dose of nitroglycerin score 4 (%) (6 months after treatment): (2.75%) | patients with dose of nitroglycerin score 6 (%) (6 months after treatment): (1.24%) | total angina pectoris score, Md (6 months after treatment): 5.00 | total angina pectoris score, Mean (6 months after treatment): 4.54 | change of total angina pectoris score, Md [1]: −1.00 | change of total angina pectoris score, Mean [1]: −2.58 | patients with change of dose of nitroglycerin score 0 (%) [1]: (69.47%) | patients with change of dose of nitroglycerin score 1 (%) [1]: (0.48%) | patients with change of dose of nitroglycerin score 2 (%) [1]: (4.14%) | patients with change of dose of nitroglycerin score 4 (%) [1]: (0.28%) | patients with change of dose of nitroglycerin score 6 (%) [1]: (0.28%) | patients with change of dose of nitroglycerin score −1 (%) [1]: (0.28%) | patients with change of dose of nitroglycerin score −2 (%) [1]: (19.43%) | patients with change of dose of nitroglycerin score −3 (%) [1]: (0.00%) | patients with change of dose of nitroglycerin score −4 (%) [1]: (4.41%) | patients with change of dose of nitroglycerin score −5 (%) [1]: (0.21%) | patients with change of dose of nitroglycerin score −6 (%) [1]: (1.03%) | distribution of total angina pectoris score: Medium, number of patients (9 months after treatment): 233 | distribution of total angina pectoris score: Medium, percentage of patients (9 months after treatment): (16.15%) | distribution of total angina pectoris score: Mild, number of patients (9 months after treatment): 1207 | distribution of total angina pectoris score: Mild, percentage of patients (9 months after treatment): (83.65%) | distribution of total angina pectoris score: Severe, number of patients (9 months after treatment): 3 | distribution of total angina pectoris score: Severe, percentage of patients (9 months after treatment): (0.21%) | patients with dose of nitroglycerin score 0 (%) (9 months after treatment): (68.96%) | patients with dose of nitroglycerin score 1 (%) (9 months after treatment): (1.25%) | patients with dose of nitroglycerin score 2 (%) (9 months after treatment): (27.43%) | patients with dose of nitroglycerin score 4 (%) (9 months after treatment): (1.39%) | patients with dose of nitroglycerin score 6 (%) (9 months after treatment): (0.97%) | total angina pectoris score, Md (9 months after treatment): 5.00 | total angina pectoris score, Mean (9 months after treatment): 4.10 | change of total angina pectoris score, Md [2]: −2.00 | change of total angina pectoris score, Mean [2]: −3.02 | patients with change of dose of nitroglycerin score 0 (%) [2]: (66.50%) | patients with change of dose of nitroglycerin score 1 (%) [2]: (0.42%) | patients with change of dose of nitroglycerin score 2 (%) [2]: (4.18%) | patients with change of dose of nitroglycerin score 4 (%) [2]: (0.28%) | patients with change of dose of nitroglycerin score 6 (%) [2]: (0.28%) | patients with change of dose of nitroglycerin score −1 (%) [2]: (0.56%) | patients with change of dose of nitroglycerin score −2 (%) [2]: (21.38%) | patients with change of dose of nitroglycerin score −3 (%) [2]: (0.14%) | patients with change of dose of nitroglycerin score −4 (%) [2]: (4.67%) | patients with change of dose of nitroglycerin score −5 (%) [2]: (0.21%) | patients with change of dose of nitroglycerin score −6 (%) [2]: (1.39%) | distribution of total angina pectoris score: Medium, number of patients (12 months after treatment): 171 | distribution of total angina pectoris score: Medium, percentage of patients (12 months after treatment): (11.94%) | distribution of total angina pectoris score: Mild, number of patients (12 months after treatment): 1259 | distribution of total angina pectoris score: Mild, percentage of patients (12 months after treatment): (87.92%) | distribution of total angina pectoris score: Severe, number of patients (12 months after treatment): 2 | distribution of total angina pectoris score: Severe, percentage of patients (12 months after treatment): (0.14%) | patients with dose of nitroglycerin score 0 (%) (12 months after treatment): (74.81%) | patients with dose of nitroglycerin score 1 (%) (12 months after treatment): (1.33%) | patients with dose of nitroglycerin score 2 (%) (12 months after treatment): (22.18%) | patients with dose of nitroglycerin score 4 (%) (12 months after treatment): (0.91%) | patients with dose of nitroglycerin score 6 (%) (12 months after treatment): (0.77%) | total angina pectoris score, Md (12 months after treatment): 0.00 | total angina pectoris score, Mean (12 months after treatment): 3.38 | change of total angina pectoris score, Md [3]: −3.00 | change of total angina pectoris score, Mean [3]: −3.71 | patients with change of dose of nitroglycerin score 0 (%) [3]: (64.63%) | patients with change of dose of nitroglycerin score 1 (%) [3]: (0.63%) | patients with change of dose of nitroglycerin score 2 (%) [3]: (2.88%) | patients with change of dose of nitroglycerin score 4 (%) [3]: (0.07%) | patients with change of dose of nitroglycerin score 6 (%) [3]: (0.28%) | patients with change of dose of nitroglycerin score −1 (%) [3]: (0.63%) | patients with change of dose of nitroglycerin score −2 (%) [3]: (23.37%) | patients with change of dose of nitroglycerin score −3 (%) [3]: (0.07%) | patients with change of dose of nitroglycerin score −4 (%) [3]: (5.47%) | patients with change of dose of nitroglycerin score −5 (%) [3]: (0.07%) | patients with change of dose of nitroglycerin score −6 (%) [3]: (1.89%) | distribution of total angina pectoris score: Medium, number of patients (Baseline): 539 | distribution of total angina pectoris score: Medium, percentage of patients (Baseline): (36.01%) | distribution of total angina pectoris score: Mild, number of patients (Baseline): 917 | distribution of total angina pectoris score: Mild, percentage of patients (Baseline): (61.26%) | distribution of total angina pectoris score: Severe, number of patients (Baseline): 41 | distribution of total angina pectoris score: Severe, percentage of patients (Baseline): (2.74%) | total angina pectoris score, Md (Baseline): 8.00 | total angina pectoris score, Mean (Baseline): 7.20 | distribution of total angina pectoris score: Medium, number of patients (Follow-up): 192 | distribution of total angina pectoris score: Medium, percentage of patients (Follow-up): (13.64%) | distribution of total angina pectoris score: Mild, number of patients (Follow-up): 1215 | distribution of total angina pectoris score: Mild, percentage of patients (Follow-up): (86.29%) | distribution of total angina pectoris score: Severe, number of patients (Follow-up): 1 | distribution of total angina pectoris score: Severe, percentage of patients (Follow-up): (0.07%) | patients with dose of nitroglycerin score 0 (%) (Follow-up): (74.31%) | patients with dose of nitroglycerin score 1 (%) (Follow-up): (0.93%) | patients with dose of nitroglycerin score 2 (%) (Follow-up): (23.13%) | patients with dose of nitroglycerin score 4 (%) (Follow-up): (1.00%) | patients with dose of nitroglycerin score 6 (%) (Follow-up): (0.64%) | total angina pectoris score, Md (Follow-up): 0.00 | total angina pectoris score, Mean (Follow-up): 3.60 | change of total angina pectoris score, Md (Follow-up-baseline): −2.00 | change of total angina pectoris score, Mean (Follow-up-baseline): −3.51 | patients with change of dose of nitroglycerin score 0 (%) (Follow-up-baseline): (64.17%) | patients with change of dose of nitroglycerin score 1 (%) (Follow-up-baseline): (0.29%) | patients with change of dose of nitroglycerin score 2 (%) (Follow-up-baseline): (4.00%) | patients with change of dose of nitroglycerin score 4 (%) (Follow-up-baseline): (0.29%) | patients with change of dose of nitroglycerin score 6 (%) (Follow-up-baseline): (0.21%) | patients with change of dose of nitroglycerin score −1 (%) (Follow-up-baseline): (0.43%) | patients with change of dose of nitroglycerin score −2 (%) (Follow-up-baseline): (22.06%) | patients with change of dose of nitroglycerin score −3 (%) (Follow-up-baseline): (0.14%) | patients with change of dose of nitroglycerin score −4 (%) (Follow-up-baseline): (6.42%) | patients with change of dose of nitroglycerin score −5 (%) (Follow-up-baseline): (0.14%) | patients with change of dose of nitroglycerin score −6 (%) (Follow-up-baseline): (1.86%) | attack times score, patients (%) (score 0, FAS): (36.58%) | attack times score, patients (%) (score 0, PP): (36.33%) | attack times score, patients (%) (score 1, FAS): (10.72%) | attack times score, patients (%) (score 1, PP): (11.08%) | attack times score, patients (%) (score 2, FAS): (46.56%) | attack times score, patients (%) (score 2, PP): (46.88%) | attack times score, patients (%) (score 4, FAS): (6.02%) | attack times score, patients (%) (score 4, PP): (5.57%) | attack times score, patients (%) (score 6, FAS): (0.11%) | attack times score, patients (%) (score 6, PP): (0.13%)
